# Results from BindingDB's records for doi:10.7270/Q21V5CG8 (Burnham Center For Chemical Genomics, 2011).
# Molecular target: T1, Cysteine protease ATG4B (Homo sapiens, UniProt Q9Y4P1)
# T1 sequence (Q9Y4P1 whole entry): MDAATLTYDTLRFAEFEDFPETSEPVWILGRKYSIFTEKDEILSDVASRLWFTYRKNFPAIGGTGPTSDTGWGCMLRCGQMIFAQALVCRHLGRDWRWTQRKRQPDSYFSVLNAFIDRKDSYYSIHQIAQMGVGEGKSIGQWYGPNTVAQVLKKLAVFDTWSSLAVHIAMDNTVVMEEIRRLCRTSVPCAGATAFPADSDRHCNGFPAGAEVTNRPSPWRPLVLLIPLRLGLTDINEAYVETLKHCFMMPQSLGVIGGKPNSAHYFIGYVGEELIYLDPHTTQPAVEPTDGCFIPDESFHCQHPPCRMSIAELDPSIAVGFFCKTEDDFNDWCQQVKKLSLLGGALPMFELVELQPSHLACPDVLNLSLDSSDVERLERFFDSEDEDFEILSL
# Experiment: autophagin-1 cysteine protease inhibition – biochemical, fluorescence, set 2, dose response (AID 588584)
row,IC50,Structure (SMILES)
1,22.8 µM,"CC1=CC(/C=N/n2c(COc3ccccc3)nc3ccccc3c2=O)C(=O)C([N+](=O)[O-])=C1 (stereo not drawn) [3-[[(E)-(3-methyl-5-nitro-6-oxocyclohexa-2,4-dien-1-ylidene)methyl]amino]-2-(phenoxymethyl)quinazolin-4-one]"
2,30.6 µM,"Cc1ccc(NC2=NC(=O)C(=Cc3c(C)[nH]c4ccccc34)S2)cc1 [5-[(2-methyl-1H-indol-3-yl)methylene]-2-[(4-methylphenyl)imino]-1,3-thiazolidin-4-one]"
3,5.4 µM,Oc1ccc2ccccc2c1CN=Nc1nnc(-c2ncc[nH]2)c2ccccc12 [SMR000151639]
